In patent US20230381192A1, “METHODS FOR CONTROLLING AND PREDICTING RECOVERY AFTER NMBA ADMINISTRATION” (Cornell University, priority 2020, published 2023):

Tests used:
cats = settings: cited from earlier work
dogs = settings: very high doses (27 and 54×ED95); cited from earlier work
Healthy volunteers = test: Phase I safety and tolerability in humans; type: in vivo, human
Procedure: (Abstract available in the final supplement of the Journal of Anesthesia and Analgesia, May 2020 (Volume 30, Issue pages 73-74), which is incorporated herein by reference. Healthy volunteers (n=34) aged 18 to 55 of either gender gave informed consent to an 1RB-approved Phase I protocol, NMB was measured by mechanomyography during sevoflurane (0.5 MAC)/N20 (70%) anesthesia. Each volunteer received a single IV bolus of RP1000,

COc1ccc(C[C@@H]2c3cc(OC)c(OC)cc3CC[N@@+]2(C)CCCOC(=O)/C=C/C(=O)OCCC[N@+]2(C)CCc3cc(OC)c(OC)cc3[C@H]2Cc2ccc(OC)c(OC)c2)cc1OC.[Cl-].[Cl-] [RP1000]
effects on autonomic or circulatory systems (cats): no observed ill-elects on autonomic or circulatory systems
decrease in mean arterial pressure (dogs): 20%
increase in heart rate (dogs): 20%
tolerability (Healthy volunteers; healthy volunteers, 0.02 mg/kg to 0.14 mg/kg): generally well-tolerated
cardiopulmonary side effects (Healthy volunteers; humans, doses up to 0.14 mg/kg): did not result in significant cardiopulmonary side effects
signs of histamine release (Healthy volunteers; humans, doses up to 0.14 mg/kg): nor any signs of histamine release
